Square brackets hold non-standard residues; d marks the D form. Peptide text beside a SMILES is read from it. * marks the point of attachment. Biotin = O=C1N[C@H]2[C@H](CS[C@H]2CCCCC(=O)*)N1; Ahx = NCCCCCC(=O)O
Experiments:
[1] = Peptide stability in cell culture medium / conditioned medium (ELISA of functional peptide); assay type: in vitro ADME
Protocol: PC3 prostate cancer cells were grown in RPMI 1640 medium (Mediatech, Inc, Herndon, VA) with 10% fetal bovine serum (FBS) (Hyclone, Logan, UT), penicillin and streptomycin. B16-F10-luc-G5 melanoma cells (Caliper Life Sciences, Hopkinton, MA) were grown in Eagle's MEM with Earle's Balanced Salts (EBSS) (Hyclone, Logan, UT) supplemented with 10% FBS, non essential amino acids (Hyclone, Logan, UT), L-glutamine, sodium pyruvate (Hyclone, Logan, UT), MEM vitamin solution (Life Technologies-Invitrogen), penicillin and streptomycin (Omega Scientific, Tarzana, CA). HUVECs (Cascade Biologics, Portland, OG) were grown in Medium 200 supplemented with low serum growth supplements (Cascade Biologics), 10% FBS, penicillin and streptomycin, and fungizone (Omega Scientific, Tarzana, CA). Rat EMCs were grown in DMEM (Mediatech, Inc, Herndon, VA) supplemented with 10% FBS, penicillin and streptomycin. The different modified forms of TNYL-RAW at a concentration of 25 nM were added to fresh medium or culture medium conditioned by the cells for 1–4 days. The culture medium was collected after different time periods and diluted 1∶10 in ELISA wells. The amount of intact TNYL-RAW peptide remaining was measured by using the ELISA assays described above for measurement of binding affinity. In some experiments, the peptide was incubated at 37°C with PC3 cell conditioned medium collected from the cells in the absence or in the presence of protease inhibitors (10 µg/ml aprotinin, 5 µg/ml pepstatin, 10 µg/ml leupeptin and 0.75 mM or phenylmethylsulfonylfluoride (PMSF)).

[2] = Peptide stability in mouse serum ex vivo; assay type: in vitro ADME; conditions: 37°C
[3] = molecular target: T1, EphB4 (Mus musculus, UniProt P54761); assay: Ephrin-B2-induced EphB4 tyrosine phosphorylation in B16 melanoma cells (immunoprecipitation/immunoblot); assay type: cell-based; conditions: 24 hours pretreatment, Figure 4A
T1 construct: tyrosine phosphorylation of endogenous EphB4 expressed in B16 melanoma cells; host or cells: B16-F10-luc-G5 melanoma cells
T1 sequence (P54761 16-987): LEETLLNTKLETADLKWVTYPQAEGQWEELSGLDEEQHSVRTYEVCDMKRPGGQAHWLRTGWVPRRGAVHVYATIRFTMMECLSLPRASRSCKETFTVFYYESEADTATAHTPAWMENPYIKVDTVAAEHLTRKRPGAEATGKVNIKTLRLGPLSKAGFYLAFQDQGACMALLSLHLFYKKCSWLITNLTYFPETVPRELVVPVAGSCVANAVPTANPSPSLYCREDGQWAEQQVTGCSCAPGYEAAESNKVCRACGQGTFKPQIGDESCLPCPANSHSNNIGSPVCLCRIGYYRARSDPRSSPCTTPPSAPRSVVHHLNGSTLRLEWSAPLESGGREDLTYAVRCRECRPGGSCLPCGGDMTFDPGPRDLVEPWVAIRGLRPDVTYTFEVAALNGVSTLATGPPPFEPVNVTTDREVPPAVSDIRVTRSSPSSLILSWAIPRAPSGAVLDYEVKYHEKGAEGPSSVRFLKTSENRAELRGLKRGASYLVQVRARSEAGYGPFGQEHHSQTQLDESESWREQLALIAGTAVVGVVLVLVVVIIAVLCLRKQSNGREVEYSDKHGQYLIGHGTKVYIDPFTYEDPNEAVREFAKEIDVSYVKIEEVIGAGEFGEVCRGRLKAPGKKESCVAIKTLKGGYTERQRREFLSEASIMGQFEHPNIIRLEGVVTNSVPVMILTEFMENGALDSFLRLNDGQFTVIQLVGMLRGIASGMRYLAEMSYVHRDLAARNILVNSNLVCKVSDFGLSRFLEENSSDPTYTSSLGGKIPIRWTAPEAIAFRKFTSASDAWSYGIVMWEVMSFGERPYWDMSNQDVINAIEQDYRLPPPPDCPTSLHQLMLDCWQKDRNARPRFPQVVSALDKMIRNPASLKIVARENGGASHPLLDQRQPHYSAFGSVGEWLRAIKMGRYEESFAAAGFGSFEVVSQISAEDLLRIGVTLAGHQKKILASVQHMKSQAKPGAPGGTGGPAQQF
Protocol: B16-F10-luc-G5 melanoma cells, which endogenously express EphB4, were serum starved for 1–3 hours in Eagle's MEM/EBSS containing 0.5% FBS and incubated for 15 min or 24 hours with different concentrations of PEG-TNYL-RAW. The cells were then stimulated for 20 min with 1.5 µg/ml ephrin-B2 Fc, which had been preclustered with a 3 fold excess of an anti-Fc antibody, in the continued presence of the peptide. HUVECs, EMCs or a 1∶1 mixture of the two cell types were plated for 20 hours in complete medium in the presence of PEG or PEG-TNYL-RAW. Medium 200 was used for HUVECs and HUVECs and EMCs co-cultures, DMEM was used for EMCs. The cells were lysed in modified RIPA buffer (1% Triton X-100, 1% Na deoxycholate; 0.1% SDS; 20 mM Tris; 150 mM NaCl; 1 mM EDTA) containing 10 µM NaF, 1 µM sodium pervanadate and protease inhibitors. Protein concentrations were measured using the BCA protein assay kit (Pierce Biotechnology, Rockford, IL). For immunoprecipitations, cell lysates were incubated with 20 µg of an anti-EphB4 antibody made to a GST fusion protein of the EphB4 SAM domain and carboxy-terminal tail immobilized on GammaBind Sepharose beads (GE Healthcare Life Sciences). […]

CC[C@H](C)[C@H](NC(=O)[C@@H]1CCCN1C(=O)CNC(=O)[C@H](CC(N)=O)NC(=O)[C@@H]1CCCN1C(=O)[C@H](CO)NC(=O)[C@H](Cc1ccccc1)NC(=O)[C@H](CC(C)C)NC(=O)[C@H](Cc1ccc(O)cc1)NC(=O)[C@H](CC(N)=O)NC(=O)[C@@H](N)[C@@H](C)O)C(=O)N[C@@H](C)C(=O)N[C@@H](CCCNC(=N)N)C(=O)N[C@@H](C)C(=O)N[C@@H](Cc1c[nH]c2ccccc12)C(=O)NCCCCCC(=O)N[C@@H](CCCCNC(=O)CCCC[C@@H]1SC[C@@H]2NC(=O)N[C@@H]21)C(N)=O [TNYL-RAW] (H-TNYLFSPNGPIARAW[Ahx]K(Biotin)-NH2; N-terminus and C-terminus assumed)
Peptide loss in culture medium of other cell types ([1]; B16 melanoma cells, HUVECs, EMCs (Figure S1), C6 glioma cells and BPH1 prostate epithelial cells (data not shown), biotinylated TNYL-RAW, ELISA): Rapid TNYL-RAW loss | Half-life in PC3 cell culture medium ([1]; biotinylated TNYL-RAW with PC3 prostate cancer cells grown in the same medium for several days, depends on cell density and time in medium, ELISA capture on EphB4 Fc, streptavidin-HRP, Figure 1A): less than an hour to several hours | Half-life with cells in fresh culture medium versus medium used for 3 days ([1]; biotinylated TNYL-RAW, PC3 cells, medium freshly replaced before adding peptide, ELISA, Figure 1A): had a longer half-life | Peptide loss in PC3 cell conditioned medium with protease inhibitors ([1]; conditioned medium without cells, 37°C, aprotinin, leupeptin, pepstatin and PMSF, ELISA, Figure 1B): blocked by a mixture of protease inhibitors | Loss in mouse serum ex vivo with protease inhibitors ([2]; mouse serum, mixture of protease inhibitors, ELISA, Fig. 1E): partially counteracted by a mixture of protease inhibitors | Stability in mouse serum ex vivo ([2]; undiluted mouse serum, functional peptide by ELISA, Figures 1E, 3B): rapidly lost | Inhibitory activity on EphB4 phosphorylation after 24 hours of incubation with cells [3]: ineffective

From article PMC3237458, “PEGylation Potentiates the Effectiveness of an Antagonistic Peptide That Targets the EphB4 Receptor with Nanomolar Affinity” (PLoS ONE, 2011)
